Read-outs that look alike come from different tables or passages of the source.
Tests used:
[1] = system: Glukose-6-Phosphat-Dehydrogenase; conditions: same conditions as 1.1 (0,5 mg, 37°C, 30 Minuten); n = 22, mean ± SD; Leerwert 148 ± 22
Protocol: (§1) Von 20 Patienten mit unterschiedlichen Erkrankungen wurden jeweils 10 ml menschlichen Venenblutes entnommen und dessen Gerinnungsfähigkeit durch Zusatz von Heparin aufgehoben. Als Parameter für die optimale Erythrozytenfunktion wurde vor und nach der Inkubation mit 0,5 mg reduziertem Glutathion bei 37°C während eines Zeitraumes von 30 Minuten der Gehalt an intraerythrozytärem reduziertem Glutathion bestimmt.
(§2) 1.2) In-vitro-Versuch an Zellensystemen menschlicher Erythrozyten:
(§3) Unter denselben Bedingungen wie bei vorstehend beschriebenem Versuch wurden die Enzyme Glukose-6-Phosphat-Dehydrogenase und Glutathion-Reduktase aus Erythrozyten von 22 Patienten in vitro untersucht.

Glutathion-Reduktase = Glutathion-Reduktase (Homo sapiens, UniProt P00390); conditions: same conditions as 1.1 (0,5 mg, 37°C, 30 Minuten); n = 22, mean ± SD; Leerwert 9,5 ± 0,8
Sequence of Glutathion-Reduktase (P00390 44-522): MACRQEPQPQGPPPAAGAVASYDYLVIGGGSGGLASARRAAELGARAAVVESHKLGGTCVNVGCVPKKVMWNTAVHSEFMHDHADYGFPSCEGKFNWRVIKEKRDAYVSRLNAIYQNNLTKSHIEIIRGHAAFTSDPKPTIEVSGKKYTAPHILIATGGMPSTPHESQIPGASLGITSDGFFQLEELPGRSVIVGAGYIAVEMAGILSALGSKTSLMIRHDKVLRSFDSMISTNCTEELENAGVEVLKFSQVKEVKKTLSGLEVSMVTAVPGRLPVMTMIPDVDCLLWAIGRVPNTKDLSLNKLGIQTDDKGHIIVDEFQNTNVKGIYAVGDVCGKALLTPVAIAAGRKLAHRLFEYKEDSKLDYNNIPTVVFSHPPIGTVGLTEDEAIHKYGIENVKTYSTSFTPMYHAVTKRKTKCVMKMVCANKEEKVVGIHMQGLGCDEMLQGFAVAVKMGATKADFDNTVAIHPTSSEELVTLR
Protocol: as §1, §2, §3

Redoxstatus des Blutes [2] = conditions: Kaninchen, Ohrvenenblut, 10 mg/kg intravenös, 5 - 10 Minuten after application, after load, n = 30, mean ± SD
Protocol: Bei 5 verschiedenen Kaninchen wurden in 30 Versuchen im venösen Blut folgende Parameter nach der Methode und mit dem gerät VINCENT gemessen: • Ohm'scher Widerstand: r • Redoxpotential EH bzw. Elektronenpotential: rH2 • pH-Wert: pH.
Die Werte wurden im Ohrvenenblut nach definierter Sauerstoffmangel-Belastung gemessen.
Danach wurde den Tieren reduziertes Glutathion in einer Dosis von 10 mg/kg Körpergewicht intravenös verabreicht.
5 - 10 Minuten nach der Applikation von reduziertem Glutathion wurden folgende Werte ermittelt:
Randbedingungen: Temperatur 20°C, Luftdruck 767 mm Hg.

Redoxstatus des Blutes [3] = conditions: human venous blood, 600 mg langsam intravenös, 10 Minuten after application, after load, n = 50, mean ± SD
Protocol: 2.2) Selbstversuch am Menschen zur Verbesserung und/oder zur Normalisierung des Redorstatus des Blutes:
Im menschlichen Venenblut wurden nach definierter Sauerstoff-Mangel-Belastung die gleichen Parameter bestimmt wie im vorstehend gegchilderten Versuch. Insgesamt wurden 50 Versuche an verschiedenen Tagen durchgeführt.
Danach wurde-reduziertes Glutathion in einer Dosis von 600 mg langsam intravenös verabreicht.
Randbedingungen: Temperatur 20°C, Luftdruck 758 - 770 mm Hg.

[4] = system: malignen Melanoms vom Menschen; conditions: 4 mice, 10^6 melanoma cells, 250 mg three times weekly
From the text: 2.3) Versuch an 8 gesunden Graumäusen nach Transplantation eines malignen Melanoms vom Menschen.
In Fig. 1 ist das Wachstum des Tumors in Abhängigkeit von der Zeit dargestellt.

[5] = system: malignen Melanoms vom Menschen; conditions: 300 mg three times weekly
Protocol: 2.4) Versuch an 40 gesunden Graumäusen nach Transplantation eines malignen Melanoms vom Menschen.
40 gesunden Graumäusen wurden je 10^6 maligne Melanomzellen überimpft.
30 Tiere wurden vom Beginn der Versuchsreihe an drei mal wöchentlich mit je 300 mg reduziertem Glutathion behandelt.

[6] = Toxicity of the therapeutic dosage in small animals; format: in vivo; conditions: small animals such as Graumäusen, Wistar-Ratten und Kaninchen; therapeutic dosage (2 - 5 mg/kg for man)
Protocol: Die therapeutische Dosierung, die sich im Tierversuch an Kleintieren wie Graumäusen, Wistar-Ratten und Kaninchen als untoxisch erwiesen hat, liegt für den Menschen in einem Bereich von 2 - 5 mg/kg Körpergewicht für eine Einzeldosis bei langsamer intravenöser Injektion, wobei das Injektionsvolumen 5 ml beträgt mit einem Gehalt an reduziertem Glutathion von 150 mg.

[7] = cited from earlier work
[8] = cited from earlier work; remark: listed apart in the source
[9] = cited from earlier work; remark: listed apart in the source
[10] = 30 treated mice, 10^6 melanoma cells

Compound: N[C@@H](CCC(=O)N[C@@H](CS)C(=O)NCC(=O)O)C(=O)O [reduziertes Glutathion, gamma-Glutamyl-cysteinyl-glycin]
- Glukose-6-Phosphat-Dehydrogenase, Werte nach Inkubation [1]: 179 ± 16 mU/ 10^9 Erys.
- Glutathion-Reduktase, Werte nach Inkubation (Glutathion-Reduktase): 11,3 ± 1,2 U/ 10^11 Erys.
- pH-Wert (Redoxstatus des Blutes [2]; without: 7,38 ± 0,21): pH = 7,15 ± 0,16
- Ohm'scher Widerstand r (Redoxstatus des Blutes [2]; without: 199 ± 12): r = 202 ± 14 Ohm/cm^3
- pH-Wert (Redoxstatus des Blutes [3]; without: 7,41 ± 0,18): pH = 7,23 ± 0,11
- Ohm'scher Widerstand r (Redoxstatus des Blutes [3]; without: 197 ± 14,5): r = 204 ± 12,3 Ohm/cm^3
- Überleben ([4]; controls died within 8 - 14 Tagen): überlebten bis zur siebten Woche
- Tumorwachstum ([4]; versus untreated controls): deutlich langsameres Tumorwachstum
- weitere gestorbene Tiere innerhalb 20 Tagen [5, 10]: fünf
- weitere gestorbene Tiere innerhalb 30 Tagen [5, 10]: sieben
- gestorbene Tiere innerhalb 15 Tagen ([5]; 30 treated mice, 10^6 melanoma cells, controls died within 8 - 12 Tagen): drei
- Anteil überlebender behandelter Tiere, 30 Tage Beobachtungszeitraum ([5]; of 30 treated mice): 50%
- überlebende Tiere, 30 Tage Beobachtungszeitraum ([5]; of 30 treated mice): 15 Tiere
- Toxizität der therapeutischen Dosierung im Tierversuch [6]: untoxisch
- Löslichkeit in Wasser ([7]; Wasser): leicht löslich
- Löslichkeit in physiologischer Kochsalzlösung ([7]; physiologischer Kochsalzlösung): leicht löslich
- Löslichkeit in Äthanol ([7]; Äthanol): löslich
- pK-Wert COOH(1) ([8]; COOH(1)): 3,53
- pK-Wert COOH(2) ([8]; COOH(2)): 2,12
- pK-Wert NH3 ^+ ([8]; NH3 ^+): 8,66
- pK-Wert SH ([8]; SH): 9,66
- biologische Halbwertszeit in der Augenlinse ([9]; human tissue: Augenlinse): ca. 30 Std.
- biologische Halbwertszeit im Erythrozyten ([9]; human tissue: Erythrozyten): ca. 100 Std.
- biologische Halbwertszeit im Gehirn ([9]; human tissue: Gehirn): ca. 70 Std.
- biologische Halbwertszeit in der Leber ([9]; human tissue: Leber): ca. 4 Std.

Reference: patent EP0655460B1, “Pharmacotherapeutical use of glutathione derivatives” (Ohlenschläger, Gerhard, Dr. med., priority 1987, dated 1989)
